Experimental data from US8119805B2, “Substituted disulfonamide compounds” (Gruenenthal GmbH, priority 2008, dated 2012).
Where a name gives a salt, the structure may show the parent alone.

Assays:
[1] = target: T1, human B1R receptor (hB1R) (Homo sapiens, UniProt P46663); experiment: Functional investigation on the bradykinin 1 receptor (B1R), FLIPR Ca2+ assay, hB1R cells; type: cell-based; conditions: test substance 10 μM; CHO K1 cells transfected with human B1R gene; Fluo-4 Ca2+ signal; agonist Lys-Des-Arg9-bradykinin at EC80; % of maximum achievable inhibition; read-out: B1R antagonism, human [10 μM] % inhibition
T1 construct: expressed in transfected cells; host or cells: CHO K1 cells
T1 sequence (P46663 1-353): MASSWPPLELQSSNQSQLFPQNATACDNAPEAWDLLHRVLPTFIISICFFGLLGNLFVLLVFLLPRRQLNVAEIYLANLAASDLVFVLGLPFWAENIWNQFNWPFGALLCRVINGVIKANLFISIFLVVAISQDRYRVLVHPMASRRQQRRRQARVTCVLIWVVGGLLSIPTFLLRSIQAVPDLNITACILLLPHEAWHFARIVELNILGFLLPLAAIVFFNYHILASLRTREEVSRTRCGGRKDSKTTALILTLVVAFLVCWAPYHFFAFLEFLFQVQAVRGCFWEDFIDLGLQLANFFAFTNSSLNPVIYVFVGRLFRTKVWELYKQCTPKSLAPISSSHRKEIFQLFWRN
Description: (§1) The agonistic or antagonistic action of substances on the bradykinin 1 receptor (B1R) of the human and rat species can be quantified with ectopically expressing cell lines (CHO K1 cells) and with the aid of a Ca^2+-sensitive dyestuff (Fluo-4) in a fluorescent imaging plate reader (FLIPR). The value in % activation is based on the Ca^2+ signal after addition of Lys-Des-[…]-bradykinin (0.5 nM) or Des-[…]-bradykinin (100 nM). Antagonists lead to a suppression of the Ca^2+inflow after addition of the agonist. % inhibition compared with the maximum achievable inhibition is stated. The agonistic or antagonistic action of substances on the bradykinin 1 receptor (B1R) of the human and rat species can be determined with the following assay. In accordance with this assay, the Ca^2+ inflow through the channel is quantified with the aid of a Ca^2+-sensitive dyestuff (type Fluo-4, Molecular Probes Europe BV, Leiden, Holland) in a fluorescent imaging plate reader (FLIPR, Molecular Devices, Sunnyvale, USA). Chinese hamster ovary cells (CHO K1 cells) transfected stably with the human B1R gene (hB1R cells) or the B1R gene of the rat (rB1R cells) are used. For functional studies, these cells are plated out on black 96-well plates with a clear base (BD Biosciences, Heidelberg, Germany or Greiner, Frickenhausen, Germany) in a density of 20,000-35,000 cells/well. The cells are left overnight at 37° C. and 5% CO2 in culture medium (hB1R cells: Nutrient Mixture Ham's F12, Gibco Invitrogen GmbH, Karlsruhe, Germany or DMEM, Sigma-Aldrich, Taufkirchen, Germany; rB1R cells: D-MEM/F12, Gibco Invitrogen GmbH, Karlsruhe, Germany) with 10 vol. % FBS (foetal bovine serum, Gibco Invitrogen GmbH, Karlsruhe, Germany or PAN Biotech GmbH, Aidenbach, Germany). On the following day, the cells are loaded for 60 min at 37° C. with 2.13 μM Fluo-4 (Molecular Probes Europe BV, Leiden Holland) in HBSS buffer (Hank's buffered saline solution, Gibco Invitrogen GmbH, Karlsruhe, Germany) with 2.5 mM probenecid (Sigma-Aldrich, Taufkirchen, Germany) and 10 mM HEPES (Sigma-Aldrich, Taufkirchen, Germany). The plates are then washed 2× with HBSS buffer, and HBSS buffer which additionally contains 0.1% BSA (bovine serum albumin; Sigma-Aldrich, Taufkirchen, Germany), 5.6 mM glucose and 0.05% gelatine (Merck KGaA, Darmstadt, Germany) is added. After a further incubation of 20 minutes at room temperature, the plates are inserted into the FLIPR for the Ca^2+ measurement. Alternatively, the plates are washed with buffer A (15 mM HEPES, 80 mM NaCl, 5 mM KCl, 1.2 mM CaCl2, 0.7 mM MgSO4, 2 g/l glucose, 2.5 mM probenecid), buffer A is added and the plates are loaded with 2.5 μM Fluo-4 and 0.025% Pluronic F127 (Sigma-Aldrich, Taufkirchen, Germany). Thereafter, the cells are washed 2× with buffer A and incubated for 30 minutes at room temperature with buffer A, which additionally contains 0.05% BSA and 0.05% gelatine, and thereafter inserted into the FLIPR for the Ca^2+ measurement. The Ca^2+-dependent fluorescence is measured here before and after addition of substances (λex=488 nm, λem=540 nm). Quantification is by measurement of the highest fluorescence intensity (FC, fluorescence counts) over time. The FLIPR protocol consists of 2 additions of substance. Test substances (10 μM) are first pipetted on to the cells and the Ca^2+ inflow is compared with the control (hB1R: Lys-Des-[…]-bradykinin>=50 nM; rB1R: Des-[…]-bradykinin 10 μM). This gives the result in % activation based on the Ca^2+ signal after addition of Lys-Des-[…]-bradykinin (>=50 nM) or Des-[…]-bradykinin (10 μM). After incubation for 10-20 minutes, Lys-Des-[…]-bradykinin (hB1R) or Des-[…]-bradykinin (rB1R) at the EC80 concentration is applied and the inflow of Ca^2+ is likewise determined. Antagonists lead to a suppression of the Ca^2+ inflow. The percent inhibition compared to the maximum achievable inhibition is calculated. In order to determine the IC50 value, the substances are added in various concentrations. […]

[2] = target: T2, B1R receptor of the rat (rB1R) (Rattus norvegicus, UniProt P97583); experiment: Functional investigation on the bradykinin 1 receptor (B1R), FLIPR Ca2+ assay, rB1R cells; type: cell-based; conditions: test substance 10 μM; CHO K1 cells transfected with rat B1R gene; Fluo-4 Ca2+ signal; agonist Des-Arg9-bradykinin at EC80; % of maximum achievable inhibition; read-out: B1R antagonism, rat [10 μM] % inhibition
T2 construct: expressed in transfected cells; host or cells: CHO K1 cells
T2 sequence (P97583 1-337): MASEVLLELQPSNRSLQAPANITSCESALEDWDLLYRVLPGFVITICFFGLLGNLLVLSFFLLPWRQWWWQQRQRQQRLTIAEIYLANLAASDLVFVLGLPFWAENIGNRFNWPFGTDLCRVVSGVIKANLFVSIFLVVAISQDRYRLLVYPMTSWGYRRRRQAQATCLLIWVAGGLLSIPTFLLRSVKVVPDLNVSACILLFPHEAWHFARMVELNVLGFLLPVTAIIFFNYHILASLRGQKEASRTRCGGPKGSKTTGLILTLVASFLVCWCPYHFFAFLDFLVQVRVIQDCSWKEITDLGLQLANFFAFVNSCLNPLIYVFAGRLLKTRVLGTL
Description: as §1

inhibition at 10 µM [1] [%]	inhibition at 10 µM [2] [%]	Structure (SMILES)
83		Cc1cc(C)c(S(=O)(=O)N2CCC(CCS(=O)(=O)N3CCC(CCN4CCCC4)CC3)C2)c(C)c1 (stereo not shown) [Example 1, 1-(2-(1-(Mesitylsulfonyl)pyrrolidin-3-yl)ethylsulfonyl)-4-(2-(pyrrolidin-1-yl)ethyl)piperidine]
102	84	O=S(=O)(CCC[C@H]1CCCN1S(=O)(=O)c1ccc2ccccc2c1)N1CCN(c2ccncc2)CC1 [Example 2, (R)-1-(3-(1-(Naphthalen-2-ylsulfonyl)pyrrolidin-2-yl)propylsulfonyl)-4-(pyridin-4-yl)piperazine hydrochloride]
55		O=S(=O)(CCC1CCN(S(=O)(=O)c2csc3ccccc23)C1)N1CCC(CCN2CCCC2)CC1 (stereo not shown) [Example 3, 1-(2-(1-(Benzo[b]thiophen-3-ylsulfonyl)pyrrolidin-3-yl)ethylsulfonyl)-4-(2-(pyrrolidin-1-yl)ethyl)piperidine]
76	13	Cc1cc(C)c(S(=O)(=O)N2CC[C@@H]2CCCS(=O)(=O)N2CCC(CCN3CCCC3)CC2)c(C)c1 [Example 4, (S)-1-(3-(1-(Mesitylsulfonyl)azetidin-2-yl)propylsulfonyl)-4-(2-(pyrrolidin-1-yl)ethyl)piperidine hydrochloride]
49	56	CN1CCC(N2CCN(S(=O)(=O)CCCCC3CCCN3S(=O)(=O)c3cccc4ccccc34)CC2)CC1 (stereo not shown) [Example 5, 1-(1-Methylpiperidin-4-yl)-4-(4-(1-(naphthalen-1-ylsulfonyl)pyrrolidin-2-yl)butylsulfonyl)piperazine dihydrochloride]
61	44	Cc1cc(C)c(S(=O)(=O)N2CCCC2CCCCS(=O)(=O)N2CCC(CCN3CCCC3)CC2)c(C)c1 (stereo not shown) [Example 6, 1-(4-(1-(Mesitylsulfonyl)pyrrolidin-2-yl)butylsulfonyl)-4-(2-(pyrrolidin-1-yl)ethyl)piperidine]
38	58	COc1cc(C)c(S(=O)(=O)N2CCCC2CCCCS(=O)(=O)N2CCN(C3CCN(C)CC3)CC2)c(C)c1C (stereo not shown) [Example 7, 1-(4-(1-(4-Methoxy-2,3,6-trimethylphenylsulfonyl)pyrrolidin-2-yl)butylsulfonyl)-4-(1-methylpiperidin-4-yl)piperazine]
59	46	COc1cc(C)c(S(=O)(=O)N2CCCC2CCCCS(=O)(=O)N2CCC(CCN3CCCC3)CC2)c(C)c1C (stereo not shown) [Example 8, 1-(4-(1-(4-Methoxy-2,3,6-trimethylphenylsulfonyl)pyrrolidin-2-yl)butylsulfonyl)-4-(2-(pyrrolidin-1-yl)ethyl)piperidine]
58	30	CN1CCC(N2CCN(S(=O)(=O)CCCCC3CCCN3S(=O)(=O)c3c(Cl)cc(C(F)(F)F)cc3Cl)CC2)CC1 (stereo not shown) [Example 9, 1-(4-(1-(2,6-Dichloro-4-(trifluoromethyl)phenylsulfonyl)pyrrolidin-2-yl)butylsulfonyl)-4-(1-methylpiperidin-4-yl)piperazine]
63	10	COc1cc(C)c(S(=O)(=O)N2CCCC(CCCS(=O)(=O)N3CCC(CCN4CCCC4)CC3)C2)c(C)c1C (stereo not shown) [Example 10, 1-(4-Methoxy-2,3,6-trimethylphenylsulfonyl)-3-(3-(4-(2-(pyrrolidin-1-yl)ethyl)piperidin-1-ylsulfonyl)propyl)piperidine hydrochloride]
65	26	Cc1cc(C)c(S(=O)(=O)N2CCCC(CCCS(=O)(=O)N3CCC(CCN4CCCC4)CC3)C2)c(C)c1 (stereo not shown) [Example 11, 1-(Mesitylsulfonyl)-3-(3-(4-(2-(pyrrolidin-1-yl)ethyl)piperidin-1-ylsulfonyl)propyl)piperidine hydrochloride]
52		Cc1cc(C)c(S(=O)(=O)N2CCC(CCCS(=O)(=O)N3CCC(CCN4CCCC4)CC3)CC2)c(C)c1 [Example 12, 1-(Mesitylsulfonyl)-4-(3-(4-(2-(pyrrolidin-1-yl)ethyl)piperidin-1-ylsulfonyl)propyl)piperidine]
53		Cc1cc(C)c(S(=O)(=O)N2CCC(CCCS(=O)(=O)N3CCN(C4CCN(C)CC4)CC3)CC2)c(C)c1 [Example 13, 1-(3-(1-(Mesitylsulfonyl)piperidin-4-yl)propylsulfonyl)-4-(1-methylpiperidin-4-yl)piperazine]
58		O=S(=O)(CCC1CCN(S(=O)(=O)c2c(Cl)cc(C(F)(F)F)cc2Cl)CC1)N1CCC(CCN2CCCC2)CC1 [Example 14, 1-(2,6-Dichloro-4-(trifluoromethyl)phenylsulfonyl)-4-(2-(4-(2-(pyrrolidin-1-yl)ethyl)piperidin-1-ylsulfonyl)ethyl)piperidine]
97	18	COc1cc(C)c(S(=O)(=O)N2CC(CCS(=O)(=O)N3CCC(CCN4CCCC4)CC3)CO2)c(C)c1C (stereo not shown) [Example 15]
97	13	COc1cc(C)c(S(=O)(=O)N2CCC(CCS(=O)(=O)N3CCC(CCN4CCCC4)CC3)C2)c(C)c1C (stereo not shown) [Example 16, 1-(2-(1-(4-Methoxy-2,3,6-trimethylphenylsulfonyl)pyrrolidin-3-yl)ethylsulfonyl)-4-(2-(pyrrolidin-1-yl)ethyl)piperidine hydrochloride]
50		COc1cc(C)c(S(=O)(=O)N2CCC[C@H]2CCCS(=O)(=O)N2CCN(c3nccs3)CC2)c(C)c1C [Example 40, (S)-2-(4-(3-(1-(4-Methoxy-2,3,6-trimethylphenylsulfonyl)pyrrolidin-2-yl)propylsulfonyl)piperazin-1-yl)thiazole]
